By IC50 is commonly meant the concentration that gives 50% inhibition. A low value points to greater potency in that assay.

This experiment has as its target T1, human P2X4 (Homo sapiens, UniProt Q99571).
T1 sequence (Q99571 1-388): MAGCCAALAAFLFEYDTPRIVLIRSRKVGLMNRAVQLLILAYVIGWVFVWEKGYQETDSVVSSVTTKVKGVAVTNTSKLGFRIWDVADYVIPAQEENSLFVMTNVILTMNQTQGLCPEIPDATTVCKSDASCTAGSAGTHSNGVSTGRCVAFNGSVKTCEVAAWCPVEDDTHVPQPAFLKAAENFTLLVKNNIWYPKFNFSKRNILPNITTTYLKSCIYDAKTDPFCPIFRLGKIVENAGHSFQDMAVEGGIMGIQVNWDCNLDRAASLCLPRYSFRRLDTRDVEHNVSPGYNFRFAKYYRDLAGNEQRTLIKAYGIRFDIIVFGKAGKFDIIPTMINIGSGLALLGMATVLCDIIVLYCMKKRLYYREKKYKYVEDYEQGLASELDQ
Briefly: Human P2X4 HEK Cell FLIPR Assay. In kind it is cell-based. To be noted: agonist Bz-ATP at EC80; for Emax: HEK293, HEK293 cells, percentage of maximal inhibition, read-out: Human P2X4 HEK Cells (FLIPR Assay) avg Efficacy [%]; for IC50: HEK293 cells, individual values listed where some fall outside detection range. Summed up: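 Calcium flux read by FLIPR for 120 sec after Bz-ATP challenge at EC80 (established each assay day), following 30 min room-temperature compound preincubation in dye-loaded stable human P2X4 HEK293 cells. Peak RFU over basal normalized to agonist control; IC50, maximal inhibition and Hill coefficient from triplicate means.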

On to `CC(C)c1ccccc1CC(=O)Nc1ccc(-n2cc(C(F)(F)F)cn2)c(S(N)(=O)=O)c1` [Example 137, 2-(2-Isopropylphenyl)-N-{3-sulfamoyl-4-[4-(trifluoromethyl)-1H-pyrazol-1-yl]phenyl}-acetamide], for which the Emax came out at 89% and the IC50 is 1170 nM.
In the case of `COc1ccc(Cl)c(CC(=O)Nc2ccc(-n3cc(C(F)(F)F)cn3)c(S(N)(=O)=O)c2)c1` [Example 138, 2-(2-Chloro-5-methoxyphenyl)-N-{3-sulfamoyl-4-[4-(trifluoromethyl)-1H-pyrazol-1-yl]phenyl}acetamide], the Emax is 100% and the IC50 amounted to 238 nM.
Turning to `NS(=O)(=O)c1cc(NC(=O)Cc2cc(F)ccc2Cl)ccc1-n1cc(C(F)(F)F)cn1` [Example 139, 2-(2-Chloro-5-fluorophenyl)-N-{3-sulfamoyl-4-[4-(trifluoromethyl)-1H-pyrazol-1-yl]phenyl}acetamide], the Emax was 100% and the IC50 was 107 nM.
For `NS(=O)(=O)c1cc(NC(=O)Cc2ccccc2C(F)(F)F)ccc1-n1cc(F)cn1` [Example 140, N-[4-(4-Fluoro-1H-pyrazol-1-yl)-3-sulfamoylphenyl]-2-[2-(trifluoromethyl)phenyl]-acetamide] the same measures were 92% and 77 nM.
In the case of `Cc1cc(F)c(Br)cc1CC(=O)Nc1ccc(-n2cc(C(F)(F)F)cn2)c(S(N)(=O)=O)c1` [Example 141, 2-(5-Bromo-4-fluoro-2-methylphenyl)-N-{3-sulfamoyl-4-[4-(trifluoromethyl)-1H-pyrazol-1-yl]phenyl}acetamide], the Emax is 96% and the IC50 came to 638 nM.
The matching figures for `COc1cccc(Cl)c1CC(=O)Nc1ccc(-n2cc(C(F)(F)F)cn2)c(S(N)(=O)=O)c1` [Example 142, 2-(2-Chloro-6-methoxyphenyl)-N-{3-sulfamoyl-4-[4-(trifluoromethyl)-1H-pyrazol-1-yl]phenyl}acetamide]: 78% and 116 nM.
For `NS(=O)(=O)c1cc(NC(=O)Cc2c(F)cc(F)cc2Cl)ccc1-n1cc(C(F)(F)F)cn1` [Example 143, 2-(2-Chloro-4,6-difluorophenyl)-N-{3-sulfamoyl-4-[4-(trifluoromethyl)-1H-pyrazol-1-yl]phenyl}acetamide] the same measures were 84% and 247 nM.
Consider `NS(=O)(=O)c1cc(NC(=O)Cc2cccc(F)c2)ccc1-n1cc(F)cn1` [Example 144, 2-(3-Fluorophenyl)-N-[4-(4-fluoro-1H-pyrazol-1-yl)-3-sulfamoylphenyl]acetamide], for which the Emax came to 62% and the IC50 is 292 nM.
For `NS(=O)(=O)c1cc(NC(=O)Cc2ccc(F)c(F)c2)ccc1-n1cc(F)cn1` [Example 145, 2-(3,4-Difluorophenyl)-N-[4-(4-fluoro-1H-pyrazol-1-yl)-3-sulfamoylphenyl]acetamide] the same measures were 49% and more than 25000 nM.
With `NS(=O)(=O)c1cc(NC(=O)Cc2cc(F)cc(F)c2)ccc1-n1cc(F)cn1` [Example 146, 2-(3,5-Difluorophenyl)-N-[4-(4-fluoro-1H-pyrazol-1-yl)-3-sulfamoylphenyl]acetamide], the Emax turned out to be 66% and the IC50 came to 364 nM.
Turning to `NS(=O)(=O)c1cc(NC(=O)Cc2ccccc2O)ccc1-n1cc(F)cn1` [Example 147, N-[4-(4-Fluoro-1H-pyrazol-1-yl)-3-sulfamoylphenyl]-2-(2-hydroxyphenyl)acetamide], the Emax was 100% and the IC50 turned out to be 80 nM.
For `NS(=O)(=O)c1cc(NC(=O)Cc2cccc(Cl)c2)ccc1-n1cc(F)cn1` [Example 148, 2-(3-Chlorophenyl)-N-[4-(4-fluoro-1H-pyrazol-1-yl)-3-sulfamoylphenyl]acetamide] the same measures were 63% and 132 nM.
In the case of `NS(=O)(=O)c1cc(NC(=O)Cc2ccc(F)cc2)ccc1-n1cc(F)cn1` [Example 149, 2-(4-Fluorophenyl)-N-[4-(4-fluoro-1H-pyrazol-1-yl)-3-sulfamoylphenyl]acetamide], the Emax is 56% and the IC50 stood at 211 nM.
Turning to `NS(=O)(=O)c1cc(NC(=O)Cc2ccc(O)cc2)ccc1-n1cc(F)cn1` [Example 150, N-[4-(4-Fluoro-1H-pyrazol-1-yl)-3-sulfamoylphenyl]-2-(4-hydroxyphenyl)acetamide], the Emax stood at 80% and the IC50 turned out to be 433 nM.
The matching figures for `Cc1cccc(CC(=O)Nc2ccc(-n3cc(F)cn3)c(S(N)(=O)=O)c2)c1` [Example 151, N-[4-(4-Fluoro-1H-pyrazol-1-yl)-3-sulfamoylphenyl]-2-(3-methylphenyl)acetamide]: 83% and 81 nM.
In the case of `Cc1ccc(CC(=O)Nc2ccc(-n3cc(F)cn3)c(S(N)(=O)=O)c2)cc1` [Example 152, N-[4-(4-Fluoro-1H-pyrazol-1-yl)-3-sulfamoylphenyl]-2-(4-methylphenyl)acetamide], the Emax came to 79% and the IC50 was found to be 105 nM.
The matching figures for `COc1ccc(CC(=O)Nc2ccc(-n3cc(F)cn3)c(S(N)(=O)=O)c2)cc1` [Example 153, N-[4-(4-Fluoro-1H-pyrazol-1-yl)-3-sulfamoylphenyl]-2-(4-methoxyphenyl)acetamide]: 74% and 182 nM.
For `Cc1ccccc1CC(=O)Nc1ccc(-n2cc(F)cn2)c(S(N)(=O)=O)c1` [Example 154, N-[4-(4-Fluoro-1H-pyrazol-1-yl)-3-sulfamoylphenyl]-2-(2-methylphenyl)acetamide] the same measures were 84% and 30 nM.
The matching figures for `NS(=O)(=O)c1cc(NC(=O)Cc2cccc(F)c2F)ccc1-n1cc(F)cn1` [Example 155, 2-(2,3-Difluorophenyl)-N-[4-(4-fluoro-1H-pyrazol-1-yl)-3-sulfamoylphenyl]acetamide]: 86% and 108 nM.
As for `CCOc1ccccc1CC(=O)Nc1ccc(-n2cc(F)cn2)c(S(N)(=O)=O)c1` [Example 156, 2-(2-Ethoxyphenyl)-N-[4-(4-fluoro-1H-pyrazol-1-yl)-3-sulfamoylphenyl]acetamide], the Emax is 94% and the IC50 stood at 243 nM.
In the case of `NS(=O)(=O)c1cc(NC(=O)Cc2ccccc2OC(F)F)ccc1-n1cc(F)cn1` [Example 157, 2-[2-(Difluoromethoxy)phenyl]-N-[4-(4-fluoro-1H-pyrazol-1-yl)-3-sulfamoylphenyl]-acetamide], the Emax was 90% and the IC50 came out at 153 nM.
For the compound `NS(=O)(=O)c1cc(NC(=O)Cc2cccnc2Cl)ccc1-n1cc(F)cn1` [Example 158, 2-(2-Chloropyridin-3-yl)-N-[4-(4-fluoro-1H-pyrazol-1-yl)-3-sulfamoylphenyl]acetamide], the Emax turned out to be 89% and the IC50 came out at 2600 nM.
The matching figures for `Cc1ccc(F)c(CC(=O)Nc2ccc(-n3cc(F)cn3)c(S(N)(=O)=O)c2)c1Cl` [Example 159, 2-(2-Chloro-6-fluoro-3-methylphenyl)-N-[4-(4-fluoro-1H-pyrazol-1-yl)-3-sulfamoyl-phenyl]acetamide]: 82% and 12 nM.
The matching figures for `NS(=O)(=O)c1cc(NC(=O)Cc2ccccc2OC(F)(F)F)ccc1-n1cc(F)cn1` [Example 160, N-[4-(4-Fluoro-1H-pyrazol-1-yl)-3-sulfamoylphenyl]-2-[2-(trifluoromethoxy)phenyl]-acetamide]: 89% and 58 nM.
Regarding `NS(=O)(=O)c1cc(NC(=O)Cc2cc(F)c(F)cc2Cl)ccc1-n1cc(F)cn1` [Example 161, 2-(2-Chloro-4,5-difluorophenyl)-N-[4-(4-fluoro-1H-pyrazol-1-yl)-3-sulfamoylphenyl]], the Emax came to 43% and the IC50 is more than 25000 nM.
Take `NS(=O)(=O)c1cc(NC(=O)Cc2cccc(C(F)(F)F)c2Cl)ccc1-n1cc(F)cn1` [Example 162, 2-[2-Chloro-3-(trifluoromethyl)phenyl]-N-[4-(4-fluoro-1H-pyrazol-1-yl)-3-sulfamoyl-phenyl]acetamide]: the Emax stood at 92% and the IC50 turned out to be 19 nM.
The matching figures for `NS(=O)(=O)c1cc(NC(=O)Cc2cc(Cl)ccc2Cl)ccc1-n1cc(F)cn1` [Example 163, 2-(2,5-Dichlorophenyl)-N-[4-(4-fluoro-1H-pyrazol-1-yl)-3-sulfamoylphenyl]acetamide]: 89% and 93 nM.
For `NS(=O)(=O)c1cc(NC(=O)Cc2c(F)ccc(F)c2Cl)ccc1-n1cc(F)cn1` [Example 164, 2-(2-Chloro-3,6-difluorophenyl)-N-[4-(4-fluoro-1H-pyrazol-1-yl)-3-sulfamoylphenyl]-acetamide] the same measures were 83% and 27 nM.
The matching figures for `Cc1ccc(Cl)c(CC(=O)Nc2ccc(-n3cc(F)cn3)c(S(N)(=O)=O)c2)c1` [Example 165, 2-(2-Chloro-5-methylphenyl)-N-[4-(4-fluoro-1H-pyrazol-1-yl)-3-sulfamoylphenyl]-acetamide]: 93% and 42 nM.

For the origin of these results see patent US11524938B2, “Aromatic sulfonamide derivatives” (Bayer Pharma Aktiengesellschaft, priority 2016, dated 2022).
